Results as given in ChEMBL document CHEMBL1201862, “PubChem BioAssay data set” (2004).
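Step 1: Grow cells in 96-well plates. Step 2: Expose to compound for 48 hours at 5 concentrations. Step 3: Interpolate endpoints linearly; if unreached, use highest concentration. GI50: concentration for 50% inhibition of growth.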 Activity calls are given as the source filed them. Cut-off read from the data, not from the text of the source: active = GI50 up to about 1.1 µM and inactive = higher.

Experiments:
Experiment in all cases: inhibition of tumour cell growth, NCI panel, 48 h
A498 = system: A498
CAKI-1 = system: CAKI-1
DMS-114 = system: DMS-114
HOP-62 = system: HOP-62
HOP-92 = system: HOP-92
IGROV-1 = system: IGROV-1
KM12 = system: KM12
M19-MEL = system: M19-MEL
NCI/ADR-RES = system: NCI/ADR-RES
OVCAR-4 = system: OVCAR-4
SF-295 = system: SF-295
SF-539 = system: SF-539
SK-MEL-28 = system: SK-MEL-28
SK-MEL-5 = system: SK-MEL-5
SNB-19 = system: SNB-19
SNB-75 = system: SNB-75
U-251 = system: U-251
XF498 = system: XF498
HCT-15 = system: HCT-15
TK-10 = system: TK-10

| SMILES | GI50 (A498) | GI50 (CAKI-1) | GI50 (DMS-114) | GI50 (HOP-62) | GI50 (HOP-92) | GI50 (IGROV-1) | GI50 (KM12) | GI50 (M19-MEL) | GI50 (NCI/ADR-RES) | GI50 (OVCAR-4) | GI50 (SF-295) | GI50 (SF-539) | GI50 (SK-MEL-28) | GI50 (SK-MEL-5) | GI50 (SNB-19) | GI50 (SNB-75) | GI50 (U-251) | GI50 (XF498) | GI50 (HCT-15) [µM] | GI50 (TK-10) |
| --- | --- | --- | --- | --- | --- | --- | --- | --- | --- | --- | --- | --- | --- | --- | --- | --- | --- | --- | --- | --- |
| O=C(O)/C=C/c1c[nH]cn1 | > 500 µM (inactive) | > 500 µM (inactive) | > 500 µM (inactive) | 493 µM (inactive) | > 500 µM (inactive) | > 500 µM (inactive) | > 500 µM (inactive) | > 500 µM (inactive) | > 500 µM (inactive) | > 500 µM (inactive) | > 500 µM (inactive) | > 500 µM (inactive) | > 500 µM (inactive) | > 232 µM (inactive) | > 500 µM (inactive) | > 500 µM (inactive) | > 500 µM (inactive) | > 500 µM (inactive) | – | – |
| CCCCCCCCC[C@@H]1C[C@H](O)[C@H](Cc2ccccc2)N1C(=O)OC(C)(C)C | 19.5 µM (inactive) | 21.9 µM (inactive) | 16.9 µM (inactive) | 19.9 µM (inactive) | 15 µM (inactive) | 18.6 µM (inactive) | 18.7 µM (inactive) | 16.8 µM (inactive) | – | 17.7 µM (inactive) | 15.8 µM (inactive) | 20.9 µM (inactive) | 19.7 µM (inactive) | 19.1 µM (inactive) | 18.6 µM (inactive) | 21.9 µM (inactive) | 16.1 µM (inactive) | 22.2 µM (inactive) | 18.6 | 15.5 µM (inactive) |
| O=C(Nc1ccc(C2=NCCN2)cc1)c1cncc(C(=O)Nc2ccc(C3=NCCN3)cc2)c1 | > 100 µM (inactive) | > 100 µM (inactive) | > 100 µM (inactive) | > 100 µM (inactive) | > 100 µM (inactive) | > 100 µM (inactive) | > 100 µM (inactive) | > 100 µM (inactive) | > 100 µM (inactive) | > 100 µM (inactive) | > 100 µM (inactive) | > 100 µM (inactive) | > 31.6 µM (inactive) | > 100 µM (inactive) | > 100 µM (inactive) | > 31.6 µM (inactive) | > 100 µM (inactive) | > 100 µM (inactive) | > 100 | – |
| CCC1CN2CCC1CC2 (centres undefined) | > 100 µM (inactive) | – | > 100 µM (inactive) | > 100 µM (inactive) | – | > 100 µM (inactive) | > 100 µM (inactive) | > 100 µM (inactive) | > 100 µM (inactive) | > 100 µM (inactive) | > 100 µM (inactive) | > 100 µM (inactive) | > 100 µM (inactive) | > 100 µM (inactive) | > 100 µM (inactive) | > 100 µM (inactive) | > 100 µM (inactive) | > 100 µM (inactive) | > 100 | – |
| O=C1C2C(C(=O)N1OS(=O)(=O)c1ccccc1)N(Cc1ccccc1)C(=O)N2Cc1ccccc1 (centres undefined) | > 100 µM (inactive) | > 100 µM (inactive) | > 100 µM (inactive) | > 100 µM (inactive) | > 100 µM (inactive) | > 100 µM (inactive) | > 100 µM (inactive) | > 100 µM (inactive) | – | > 100 µM (inactive) | > 100 µM (inactive) | > 100 µM (inactive) | > 100 µM (inactive) | > 100 µM (inactive) | > 100 µM (inactive) | 57.1 µM (inactive) | > 100 µM (inactive) | > 100 µM (inactive) | > 100 | > 100 µM (inactive) |
| COC(=O)[C@@H]1c2cc3c(c(O)c2[C@@H](OC)C[C@@]1(C)O)C(=O)c1c(O)cc2c(c1C3=O)OC1O[C@@]2(C)[C@H](O)[C@@H](N(C)C)[C@@H]1O | 0.257 µM (active) | 0.26 µM (active) | 0.217 µM (active) | 0.198 µM (active) | 0.0764 µM (active) | 0.291 µM (active) | 0.379 µM (active) | 0.266 µM (active) | 2.06 µM (inactive) | 0.395 µM (active) | 0.213 µM (active) | 2.69 µM (inactive) | 0.667 µM (active) | 0.364 µM (active) | 0.337 µM (active) | 0.245 µM (active) | 0.307 µM (active) | 0.179 µM (active) | 0.597 | – |
| Cn1c2ccccc2c(=O)c2c(O)cc3c(c21)C=CC(C)(C)O3 [NORACRONYCINE] | > 13.5 µM (inactive) | 3.05 µM (inactive) | > 25 µM (inactive) | > 25 µM (inactive) | > 25 µM (inactive) | > 25 µM (inactive) | > 25 µM (inactive) | > 25 µM (inactive) | > 25 µM (inactive) | > 25 µM (inactive) | > 25 µM (inactive) | > 25 µM (inactive) | > 25 µM (inactive) | > 25 µM (inactive) | 9.31 µM (inactive) | > 16.8 µM (inactive) | > 25 µM (inactive) | > 25 µM (inactive) | > 25 | – |
| O=C(O)CCCCCCCCC(=O)O [SEBACIC ACID] | > 23.2 µM (inactive) | > 500 µM (inactive) | 50 µM (inactive) | > 50 µM (inactive) | 5 µM (inactive) | > 500 µM (inactive) | > 500 µM (inactive) | > 79.3 µM (inactive) | > 79.3 µM (inactive) | > 50 µM (inactive) | 79.3 µM (inactive) | > 79.3 µM (inactive) | > 500 µM (inactive) | > 23.2 µM (inactive) | 108 µM (inactive) | > 79.3 µM (inactive) | > 79.3 µM (inactive) | 3.62 µM (inactive) | 99.1 | – |
